Source: patent publication US20040014637A1, “Mechanism for the inactivation of insulin receptor and uses in the treatment of type II diabetes” (McGill University, priority 1998, published 2004)
Entries after “also recorded” stand apart in the source; their conditions may differ.

Experiments:
[1] = system: 125I-hGH binding; assay: 125I-hGH binding after preincubating endosomes with ATP; parameters: species or system rat; conditions: preincubation 37° C. 15 min, percent of control
Procedure: (1992) J. Biol. Chem. 267, 11215-11221). Livers were rapidly excised, placed in ice-cold homogenizing buffer (50 mM HEPES (pH 7.4), 0.25 M sucrose, 1 mM PMSF, 1 MM MgCl2, 1 mM benzamidine) and minced before homogenization. Combined ENs and PM fractions were prepared (Faure et al. (1992) J. Biol. Chem. 267, 11215-11221) except that the buffer used throughout was that in which the livers were minced (see above). These subcellular fractions have been characterized in detail both morphologically and biochemically. […] I. et al. (1982) J. Biol. Chem. 257, 5789-5799). Protein content in the fractions was determined by a modification of Bradford's method using serum albumin as a standard (Khan, M. N. et al. […] In the present study we wished to assess whether other processes might be involved in reducing the association of intraendosomal insulin with its receptor. We examined the effect of incubating intact ENs containing IR with increasing concentrations of ATP on subsequently measured insulin and hGH binding in both solubilized and WGA-purified receptors. […] [table]

[2] = biological target: T1, insulin receptor kinase (IRK) (Rattus norvegicus, UniProt P15127); assay: Insulin receptor kinase (IRK) exogenous tyrosine kinase activity, Poly (Glu:Tyr) (4:1) substrate, WGA-purified IRK from preincubated cell fractions; type: biochemical; conditions: for IRK activity of ENs containing IR (FIG. 1A): versus absence of ATP
T1 construct: from tissue; host or cells: rat liver; endosome (EN) and plasma membrane (PM) fractions
T1 sequence (P15127 27-759 limits assumed): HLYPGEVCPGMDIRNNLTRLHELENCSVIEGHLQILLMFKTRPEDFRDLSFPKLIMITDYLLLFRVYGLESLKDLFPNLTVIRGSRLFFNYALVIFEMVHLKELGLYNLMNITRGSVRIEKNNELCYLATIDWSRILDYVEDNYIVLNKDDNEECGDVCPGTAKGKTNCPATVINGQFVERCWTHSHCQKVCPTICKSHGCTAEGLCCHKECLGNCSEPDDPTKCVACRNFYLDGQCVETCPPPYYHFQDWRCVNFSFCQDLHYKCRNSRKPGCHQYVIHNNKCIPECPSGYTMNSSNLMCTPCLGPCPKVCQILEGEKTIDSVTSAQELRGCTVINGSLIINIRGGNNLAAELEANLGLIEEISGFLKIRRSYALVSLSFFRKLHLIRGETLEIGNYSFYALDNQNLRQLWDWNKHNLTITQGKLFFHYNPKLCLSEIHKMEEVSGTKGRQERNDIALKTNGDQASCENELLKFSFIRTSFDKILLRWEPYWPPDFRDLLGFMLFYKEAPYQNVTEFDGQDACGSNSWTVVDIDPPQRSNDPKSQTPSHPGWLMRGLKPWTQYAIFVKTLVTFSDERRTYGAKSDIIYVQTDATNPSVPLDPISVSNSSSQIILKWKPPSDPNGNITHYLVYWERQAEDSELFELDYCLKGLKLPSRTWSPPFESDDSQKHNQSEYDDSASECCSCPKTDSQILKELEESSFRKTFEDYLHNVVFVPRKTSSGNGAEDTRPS
T1 sequence (P15127 764-1383 limits assumed): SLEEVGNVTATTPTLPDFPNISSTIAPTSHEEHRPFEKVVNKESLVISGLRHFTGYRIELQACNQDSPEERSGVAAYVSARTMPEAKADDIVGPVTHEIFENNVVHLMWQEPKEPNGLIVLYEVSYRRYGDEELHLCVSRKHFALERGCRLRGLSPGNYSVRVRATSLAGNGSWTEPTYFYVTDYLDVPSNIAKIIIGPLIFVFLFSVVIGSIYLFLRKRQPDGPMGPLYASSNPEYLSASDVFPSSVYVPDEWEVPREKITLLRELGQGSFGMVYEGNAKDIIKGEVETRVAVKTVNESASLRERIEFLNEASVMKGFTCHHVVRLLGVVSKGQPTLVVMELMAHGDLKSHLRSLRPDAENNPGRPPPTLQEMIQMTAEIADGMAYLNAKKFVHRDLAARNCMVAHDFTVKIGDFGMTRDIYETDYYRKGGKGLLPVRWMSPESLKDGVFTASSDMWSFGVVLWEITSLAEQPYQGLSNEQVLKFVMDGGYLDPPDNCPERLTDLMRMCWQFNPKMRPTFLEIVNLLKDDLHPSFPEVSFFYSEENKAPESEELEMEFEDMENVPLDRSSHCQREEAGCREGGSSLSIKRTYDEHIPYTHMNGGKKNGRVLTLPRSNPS

[3] = biological target: T2, insulin receptor kinase (IRK) β-subunit (Rattus norvegicus, UniProt P15127); assay: IRK β-subunit phosphotyrosine content (αPY immunoblot of WGA eluates); type: biochemical
T2 construct: from tissue; host or cells: rat liver; endosome (EN) and plasma membrane (PM) fractions
T2 sequence (P15127 27-759 limits assumed): as the sequence (P15127 27-759 limits assumed) above
T2 sequence (P15127 764-1383 limits assumed): as the sequence (P15127 764-1383 limits assumed) above
Procedure: The phosphotyrosine content of endosomal IRs (ENs containing IR) was determined by subjecting lectin column (WGA-Sepharose™)-purified preparations to SDS-PAGE and immunoblotting with α960 and αPY (Faure et al. (1992) J. Biol. Chem. 267, 11215-11221). […] FIG. 1B illustrates the effect of ATP on β subunit phosphotyrosine content. WGA eluates (5 μg protein) were subjected to SDS-PAGE in 7.5% gels followed by transfer of proteins to Immobilon-P membranes. Membranes were probed with αPY or α960 antibodies followed by incubation with ^125I-GAR as second antibody and exposed for autoradiography.

[4] = biological target: T3, EGF receptor (Rattus norvegicus, UniProt G3V6K6); assay: EGF receptor autophosphorylation in endosomes in the presence and absence of ATP; type: biochemical; conditions: ENs from EGF-treated rats incubated with 5 mM ATP
T3 construct: from tissue; host or cells: rat liver endosomes after EGF injection in vivo
T3 sequence (G3V6K6 25-1209): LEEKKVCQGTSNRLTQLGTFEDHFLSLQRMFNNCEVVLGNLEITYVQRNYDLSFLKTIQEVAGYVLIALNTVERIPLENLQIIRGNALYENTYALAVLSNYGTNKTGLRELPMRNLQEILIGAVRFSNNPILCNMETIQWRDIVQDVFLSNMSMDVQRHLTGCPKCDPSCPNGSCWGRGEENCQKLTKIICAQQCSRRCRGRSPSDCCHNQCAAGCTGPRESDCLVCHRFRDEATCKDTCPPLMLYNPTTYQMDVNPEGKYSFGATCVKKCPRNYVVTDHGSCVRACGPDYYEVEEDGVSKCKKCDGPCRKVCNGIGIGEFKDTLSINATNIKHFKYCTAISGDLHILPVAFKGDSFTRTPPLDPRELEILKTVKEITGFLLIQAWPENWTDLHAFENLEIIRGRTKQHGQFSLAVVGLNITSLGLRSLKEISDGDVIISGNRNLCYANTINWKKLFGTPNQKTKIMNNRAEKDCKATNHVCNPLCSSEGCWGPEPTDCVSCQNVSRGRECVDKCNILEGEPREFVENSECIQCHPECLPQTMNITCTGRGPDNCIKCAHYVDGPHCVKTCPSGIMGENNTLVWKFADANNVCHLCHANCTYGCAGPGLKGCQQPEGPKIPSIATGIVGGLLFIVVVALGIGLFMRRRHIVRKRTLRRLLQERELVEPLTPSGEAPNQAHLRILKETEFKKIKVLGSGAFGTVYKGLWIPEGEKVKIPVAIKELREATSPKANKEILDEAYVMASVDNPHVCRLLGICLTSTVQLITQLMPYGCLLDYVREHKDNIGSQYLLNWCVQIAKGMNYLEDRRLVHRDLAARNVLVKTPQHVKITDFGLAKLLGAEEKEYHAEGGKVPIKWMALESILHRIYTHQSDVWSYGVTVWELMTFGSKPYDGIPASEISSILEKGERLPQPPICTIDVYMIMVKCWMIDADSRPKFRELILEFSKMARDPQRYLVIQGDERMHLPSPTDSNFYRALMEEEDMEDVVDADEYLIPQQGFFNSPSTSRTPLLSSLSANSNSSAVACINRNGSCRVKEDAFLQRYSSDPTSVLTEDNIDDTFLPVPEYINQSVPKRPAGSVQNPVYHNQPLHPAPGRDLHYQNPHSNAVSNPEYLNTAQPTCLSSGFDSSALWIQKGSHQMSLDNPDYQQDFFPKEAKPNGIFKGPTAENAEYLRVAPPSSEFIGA
Procedure: EGF (10 μg/100 g body weight) was injected via the jugular vein into anesthetized rats. The animals were sacrificed by decapitation 15 mins later and ENs containing EGF receptor were prepared as noted above. Resuspended ENs containing EGF receptor were incubated for 15 mins with 5 mM ATP after which auto-phosphorylation was initiated by adding ^32P-ATP. The reaction was stopped after 15 mins of incubation at 37° C. by adding Laemmli sample buffer after which aliquots (100 μg protein) were subjected to SDS-PAGE, alkali digestion, and radioautography as described previously (Faure, R. et al. (1992) J. Biol. Chem. 267, 11215-11221).
We then determined whether preincubation with ATP attenuated EGF receptor autophosphorylation. […] EN fractions, prepared 15 mins after injecting rats with EGF (10 μg/100 g body weight), were incubated in the presence or absence of ATP (5 mM) prior to conducting autophosphorylation with ^32P-ATP, SDS-PAGE, and autoradiography.

[5] = biological target: T1, insulin receptor kinase (IRK); assay: DTT-dependent reduction of endosomal IRK heterotetramer (non-reducing SDS-PAGE); type: biochemical; conditions: ENs incubated with 5 mM ATP, 10 mM DTT, 15 min 37° C.
Procedure: Endosomal pellets containing IR were resuspended (500 μg protein/ml) in a final concentration of 50 mM Tris (pH 6.9), 10% glycerol and 20 mM N-ethylmaleimide. Samples were incubated at room temperature for 5 mins and then solubilized without heating in 2.3% SDS-0.05% bromophenol blue before subjecting to SDS-PAGE in the absence of reductants (Faure et al. ([…]) J. Biol. Chem. 267, 11215-11221).
The above observation raised the possibility that intraluminal events were responsible for deactivation of the endosomal IRK. This led us to investigate whether there might be a conformational change in the IRK consequent to ATP-dependent acidification. To probe this possibility we incubated ENs containing IR with ATP in the presence or absence of 10 mM DTT to assess the ease with which Type I disulfide bonds might be reduced in the heterotetrameric molecule ([…]). […] Hepatic ENs containing IR were prepared 2 mins after insulin injection (1.5 μg/100 g body weight) and were incubated for 15 min at 37° C. in the absence or presence of 10 mM DTT and 5 mM ATP. The ENs were centrifuged and the pellets resuspended and treated as described above. Samples were applied without heating to SDS-PAGE (gradient resolving gel, 3-10% acrylamide) in the absence of reductant. […]

[6] = preincubation 1 mM ATP 15 min, second incubation 5 mM ATP
[7] = sequential incubations in 1 mM ATP

In the case of `Nc1ncnc2c1ncn2[C@@H]1O[C@H](COP(=O)(O)OP(=O)(O)OP(=O)(O)O)[C@@H](O)[C@H]1O` [ATP, adenosine 5′triphosphate], the “125I-hGH specific binding, WGA-purified endosomes” value ([1]; ATP 0.1 mM) is reported as 88.7 ± 3.4%, the “125I-hGH specific binding, solubilized endosomes” value ([1]; ATP 0.1 mM) is reported as 105.0 ± 5.1% and the “125I-hGH specific binding, WGA-purified endosomes” value ([1]; ATP 1 mM) is reported as 93.3 ± 5.1%. For the same compound, the “125I-hGH specific binding, solubilized endosomes” value ([1]; ATP 1 mM) was 84.4 ± 6.6%, the “125I-hGH specific binding, WGA-purified endosomes” value ([1]; ATP 10 mM) was 75.2 ± 3.5% and the “125I-hGH specific binding, solubilized endosomes” value ([1]; ATP 10 mM) was 98.3 ± 3.5%. The “IRK activity of ENs containing IR (FIG. 1A)” value ([2]; 5 mM ATP, 15 min 37° C.) was “marked decrease”, the “IRK activity of ENs containing IR” value ([2]; 10 mM ATP, 15 min 37° C.) was “virtually abolished; also recorded: suppressed IRK activity completely” and the “IRK activity of ENs containing IR (FIG. 1A)” value ([2]; 0.1 and 1.0 mM ATP, 15 min 37° C.) was “increase”. For the same compound, the “Activity of WGA-purified IRK from plasma membrane (PM) (FIG. 3A)” value ([2]; PM containing IR preincubated with ATP (1 and 10 mM), 15 min 37° C.) was “augmentation of activity”, the “IRK activity after sequential incubations (FIG. 7B)” value [2, 6] was “marked reduction” and the “IRK activity after sequential incubations” value [2, 7] was “no deleterious effect”. For the same compound, the “IRK phosphotyrosine content (FIG. 1B)” value ([3]; 1 mM ATP, 15 min 37° C.) was “markedly increased”, the “IRK phosphotyrosine content (FIG. 1B)” value ([3]; 5 mM ATP, compared to 1 mM ATP) was “significantly reduced” and the “IRK phosphotyrosine content (FIG. 1B)” value ([3]; 10 mM ATP, compared to 1 mM ATP) was “virtually abolished”. The “IRK phosphotyrosine content after sequential incubations (FIG. 7A)” value [3, 6] was “substantial retention”, the “IRK phosphotyrosine content after sequential incubations” value [3, 7] was “no deleterious effect” and the “32P-labeling (autophosphorylation) of the EGF receptor (FIG. 3B)” value [4] was “no significant attenuation”. For the same compound, the “Ability of DTT to reduce tetrameric IRK molecules (FIG. 8)” value [5] was “significantly decreased”.
